# Laboratory results taken from patent US7473783B2, “Bicyclic pyrazolo protein kinase modulators” (SGX Pharmaceuticals, Inc., priority 2003, dated 2009).
# Positions count from the first letter of the chain named.
# Columns and labels:
# Assay type in all cases: biochemical
# [1] = molecular target: T1, autophosphorylated FLT3 kinase domain (FLT3KD) (Homo sapiens, UniProt P36888); assay: FLT3 kinase assay (PK/LDH coupled, NADH loss at 340 nm); settings: 250 μM ATP
# T1 construct: purified and autophosphorylated FLT3 kinase domain (FLT3KD); 6xHis (C); made in house; host or cells: baculovirus, SF9 / SF21 insect cells
# T1 sequence (P36888 610-943 limits assumed): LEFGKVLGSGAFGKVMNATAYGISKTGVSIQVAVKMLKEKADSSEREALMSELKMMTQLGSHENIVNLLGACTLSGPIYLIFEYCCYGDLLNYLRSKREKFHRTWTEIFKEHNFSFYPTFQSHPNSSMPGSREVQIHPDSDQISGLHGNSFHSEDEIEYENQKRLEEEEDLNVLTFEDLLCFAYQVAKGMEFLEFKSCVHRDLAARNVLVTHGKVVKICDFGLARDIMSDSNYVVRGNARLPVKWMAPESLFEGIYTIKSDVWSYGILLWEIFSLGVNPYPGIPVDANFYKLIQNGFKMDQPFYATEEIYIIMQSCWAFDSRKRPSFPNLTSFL
# Source text: Although this example presents the use of the FLT3 kinase domain, the kinase assays may use various forms of FLT3, including, for example, the entire molecule, the kinase domain, or a portion thereof.
# Materials : Substrate peptide=Poly (Glu, Tyr) 4:1=poly EY (Sigma P-0275); βNADH (Sigma CAT#N-8129, FW=709.4); 2M MgCl2; 1M HEPES buffer, pH 7.5; Phosphoenolpyruvate=PEP (Sigma CAT#P-7002, FW=234); Lactate dehydrogenase=LDH (Worthington Biochemical CAT#2756); Pyruvate Kinase=PK (Sigma CAT#P-9136); ATP (Sigma CAT#A-3377, FW=551); Greiner 384-well UV star plate; and purified and autophosphorylated FLT3 kinase domain (FLT3KD).
# Stock Solutions: 10 mM NADH (7.09 mg/mL in miliQH2O) make fresh daily; 1 mg/mL Poly EY (in miliQH2O) store at −20° C.; 200mM HEPES buffer, pH 7.5 (10 ml 1M stock+40 ml miliQH2O) supplemented with 1 mM DTT; 100 mM MgCl2 (5 mL+95 ml dH2)); 100 mM PEP (23.4 mg/mL in dH2O) store at −20° C.; 10 mM ATP (5.51 mg/mL in dH2O) store at −20° C. (dilute 1 mL into total of 10 mL miliQH2O daily=1 mM ATP working stock); 1000 U/mL PK (U/mg varies with lot) flash-freeze under liquid N2 and store at −80° C.; 1000 U/mL LDH (U/mg varies with lot) flash-freeze under liquid N2 and store at −80° C.
# Standard Assay Setup for 384-well format (50 μl reaction): 300 μM NADH; 10 mM MgCl2; 2 mM PEP; 45 U/mL PK; 60 U/mL LDH; 1 mg/mL Poly EY; 2.5 μL test compound (in DMSO); 10 μg/mL autophosphorylated FLT3 kinase domain; 250 μM ATP*; 100 mM HEPES buffer; QS with miliQ dH2O to 50 μL. Positive controls contained DMSO with no test compound. Negative controls contained 5 μl of 0.5M EDTA (50 mM in the assay). The kinase reaction was initiated at time t=0 by the addition of ATP.
# The unphosphorylated FLT3KD that was produced required pre-incubation with MgATP to allow for autophosphorylation and full kinase activity. The autophosphorylation reaction was run in 100 mM HEPES buffer, 1 mM DTT, and 1 mg/mL FLT3KD by the addition of ATP and MgCl2 to a final concentration of 2 mM and 10 mM respectively. The reaction was allowed to proceed at room temperature for 90 minutes, and then was quenched by the addition of EDTA to 50 mM. The autophosphorylated protein was then aliquotted and flash frozen in liquid N2 for use.
# (§1) The activity was measured by following the time-dependent loss of NADH by absorbance spectroscopy at 340 nm. The linear portion of the resulting progress curve was then be analyzed by linear regression to get the activity in absorbance units/time, reported as the slope of that best fit line (moles/unit time can be calculated from using molar extinction coeffecient for NADH at 340 nm, 6250M^−1cm^−1).
# Data was analyzed using the equation: Z′=1−[3*(σ++σ−)/|μ+−μ−|], where μ denotes the mean and σ the standard deviation. The subscript designates positive or negative controls. The Z′ score for a robust screening assay should be ≧0.50. The typical threshold=μ+−3*σ+. Any value that falls below the threshold was designated a “hit.”
# The dose response was measured using the equation: y=min+{(max−min)/1+10^[compound]-logIC50)}, where y is the observed initial slope, max is the slope in the absence of inhibitor, min is the slope at infinite inhibitor, and the IC50 is the [compound] that corresponds to ½ the total observed amplitude (Amplitude=max−min). The IC50 is related to the Ki by the following equation: IC50=Ki(1+[ATP]/Km).
# To measure modulation, activation, or inhibition of FLT3KD, a test compound was added to the assay at a range of concentrations. Inhibitors may inhibit FLT3KD activity at an IC50 in the micromolar range, the nanomolar range, and, for example, in the subnanomolar range. […]
# Abl Y393F = molecular target: T2, Abl Y393F (Mus musculus, UniProt P00520, Y393F); assay: Abl Y393F kinase assay; settings: Table 8
# T2 construct: 2 μg/mL Abl kinase domain; made in house
# T2 sequence (P00520 242-493 Y393F limits assumed): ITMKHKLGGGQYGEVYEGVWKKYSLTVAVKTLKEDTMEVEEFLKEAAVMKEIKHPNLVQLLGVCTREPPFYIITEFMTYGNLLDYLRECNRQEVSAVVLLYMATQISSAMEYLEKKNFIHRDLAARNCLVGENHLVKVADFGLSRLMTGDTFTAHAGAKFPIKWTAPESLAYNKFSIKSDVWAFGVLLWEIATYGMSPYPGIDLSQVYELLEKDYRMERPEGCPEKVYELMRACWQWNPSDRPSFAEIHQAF
# Source text: (§2) Although this example presents the use of the kinase domain of a mutant form of Abl T315I 0-P, the kinase assays may use various forms of mutant and wild type Abl, including, for example, the entire molecule, the kinase domain, or a portion thereof. The kinases used in the assays may also be of varying phophorylation states. In the present example, a mutant kinase at a zero phosphorylation state was used.
# (§3) Materials: Abl substrate peptide=EAIYAAPFAKKK-OH (Biopeptide, SD CA); βNADH (Sigma CAT#N-8129, FW=709.4); 2M MgCl2; 1M HEPES buffer, pH 7.5; Phosphoenolpyruvate=PEP (Sigma CAT#P-7002, FW=234); Lactate dehydrogenase=LDH (Worthington Biochemical CAT#2756); Pyruvate Kinase=PK (Sigma CAT#P-9136); ATP (Sigma CAT#A-3377, FW=551); Greiner 384-well UV star plate; and Purified and unphosphorylated T315I Abl kinase domain (clone 5582d42PPt6p6).
# (§4) Stock Solutions: 10 mM NADH (7.09 mg/mL in miliQH2O) make fresh daily; 10 mM Abl substrate peptide (13.4 mg/mL in miliQH2O) store at −20° C.; 100 mM HEPES buffer, pH 7.5 (5 mL 1M stock+45 mL miliQH2O); 100 mM MgCl2 (5 mL 2M MgCl2+95 ml dH2O); 100 mM PEP (23.4 mg/mL in dH2O) store at −20° C.; 10 mM ATP (5.51 mg/mL in dH2O) store at −20° C. (dilute 50 μL into total of 10 mL miliQH2O daily=50 μM ATP working stock); 1000 U/mL PK (U/mg varies with lot) flash-freeze under liquid N2 and store at −80° C.; and 1000 U/mL LDH (U/mg varies with lot) flash-freeze under liquid N2 and store at −80° C.
# (§5) Standard Assay Setup for 384-well format (50 μl reaction): 300 μM NADH; 10 mM MgCl2; 2 mM PEP; 45 U/mL PK; 60 U/mL LDH; 200 μM Abl substrate peptide; 2.5 μL test compound (in DMSO); 2 μg/mL Abl kinase domain; 10 μM ATP; 100 mM HEPES buffer; QS with miliQ dH2O to 50 μL; Positive controls contained DMSO with no test compound. Negative controls contained 5 μl of 0.5M EDTA (50 mM in the assay). The dephosphorylated form of the c-Abl T315I mutant were used in the biochemical screening assays. The kinase reaction was initiated at time t=0 by the addition of ATP.
# as §1, with “coefficient” for “coeffecient”
# (§6) Data was analyzed using the equation: Z′=1-[3*(σ++σ−)/|μ+−μ−|], where μ denotes the mean and σ the standard deviation. The subscript designates positive or negative controls. The Z′ score for a robust screening assay should be ≧0.50. The typical threshold=μ+−3*σ+. Any value that falls below the threshold was designated a “hit”.
# (§7) Dose response was analyzed using the equation: y=min+{(max−min)/(1+10^[compound]-logIC50)}, where y is the observed initial slope, max=the slope in the absence of inhibitor, min=the slope at infinite inhibitor, and the IC50 is the [compound] that corresponds to ½ the total observed amplitude (Amplitude=max−min).
# (§8) To measure modulation, activation, or inhibition of AblKD, a test compound was added to the assay at a range of concentrations. Inhibitors may inhibit AblKD activity at an IC50 in the micromolar range, the nanomolar range, and, for example, in the subnanomolar range.
# (§9) To measure the binding of a compound to Abl or AblKD, a test kit manufactured by Discoverx (Fremont, Calif.), ED—Staurosporine NSIP™ Enzyme Binding Assay Kit (see U.S. Pat. No. 5,643,734) was used.
# [2] = molecular target: T3, Abl T315I kinase domain, unphosphorylated (Mus musculus, UniProt P00520, T315I); assay: Abl T315I kinase assay (PK/LDH coupled, NADH loss at 340 nm); settings: Table 8; 10 μM ATP; zero phosphorylation state
# T3 construct: Purified and unphosphorylated T315I Abl kinase domain (clone 5582d42PPt6p6); made in house; host or cells: E. coli BL21(DE3) pSA0145, phosphatase co-expression plasmid
# T3 sequence (P00520 242-493 T315I limits assumed): T2 sequence (P00520 242-493 Y393F limits assumed) with T74I, F152Y
# Source text: as §2, §3, §4, §5
# as §1, with “coefficient” for “coeffecient”
# as §6, §7, §8, §9
smiles,measurement,setting,value
O=C(Nc1nc2[nH]nc(-c3cccc(C(F)(F)F)c3)c2s1)c1ccccc1,IC50,[1]; Table 5,1 to 10 µM
O=C(Nc1nc2[nH]nc(-c3ccncc3)c2s1)c1ccccc1,IC50,[1]; Table 6,< 0.1 µM
O=C(Nc1nc2[nH]nc(-c3ccccc3)c2s1)c1ccno1,IC50,[1]; Table 6,< 0.1 µM
CC(C)(C)c1n[nH]c2nc(NC(=O)c3ccccc3)sc12,IC50,[1]; Table 6,0.1 to 1 µM
O=C(Nc1nc2[nH]nc(-c3ccco3)c2s1)c1ccccc1,IC50,[1]; Table 6,0.1 to 1 µM
O=C(Nc1nc2[nH]nc(-c3ccccn3)c2s1)c1ccco1,IC50,[1]; Table 6,0.1 to 1 µM
CC(C)(C)c1n[nH]c2nc(NC(=O)c3ccncc3)sc12,IC50,[1]; Table 6,> 1 µM
CC(=O)Nc1nc2[nH]nc(-c3ccccc3Cl)c2s1,IC50,Abl Y393F,> 1 µM
same,IC50,[2],> 1 µM
O=C(Nc1nc2[nH]nc(-c3ccccc3)c2s1)c1cccs1,IC50,Abl Y393F,0.5 to 1 µM
same,IC50,[2],0.5 to 1 µM
O=C(Nc1nc2[nH]nc(-c3cccc(Br)c3)c2s1)c1ccccc1,IC50,Abl Y393F,> 1 µM
same,IC50,[2],> 1 µM
COCC(=O)Nc1nc2[nH]nc(-c3ccccc3)c2s1,IC50,Abl Y393F,> 1 µM
same,IC50,[2],> 1 µM
O=C(Nc1nc2[nH]nc(-c3ccc(Cl)cc3)c2s1)c1ccccc1 [drawing 246],IC50,[1]; Table 5,< 1 µM
O=C(Nc1nc2[nH]nc(-c3ccccc3)c2s1)c1ccncc1 [drawing 248],IC50,[1]; Table 5,< 1 µM
O=C(Nc1nc2[nH]nc(-c3ccccc3)c2s1)c1cccc(Br)c1 [drawing 249],IC50,[1]; Table 5,1 to 10 µM
COCCOCC(=O)Nc1nc2[nH]nc(-c3ccccc3)c2s1 [drawing 250],IC50,[1]; Table 5,1 to 10 µM
CC(=O)N1CCC(C(=O)Nc2nc3[nH]nc(-c4ccccc4)c3s2)CC1 [drawing 251],IC50,[1]; Table 5,1 to 10 µM
O=C(Nc1nc2[nH]nc(-c3ccc(O)cc3)c2s1)C1CC1 [drawing 254],IC50,[1]; Table 6,< 0.1 µM
O=C(Nc1nc2[nH]nc(-c3ccccc3)c2s1)c1cccc(Br)c1 [drawing 259],IC50,[1]; Table 6,> 1 µM
O=C(Nc1nc2[nH]nc(-c3ccccc3Cl)c2s1)C1CC1 [drawing 266],IC50,Abl Y393F,< 0.5 µM
same,IC50,[2],< 0.5 µM
O=C(Nc1nc2[nH]nc(-c3ccccc3Br)c2s1)C1CC1 [drawing 267],IC50,Abl Y393F,< 0.5 µM
same,IC50,[2],< 0.5 µM
O=C(Nc1nc2[nH]nc(-c3ccccc3)c2s1)c1ccco1 [drawing 268],IC50,Abl Y393F,< 0.5 µM
same,IC50,[2],< 0.5 µM
COc1ccc(-c2n[nH]c3nc(NC(=O)C4CC4)sc23)cc1 [drawing 271],IC50,Abl Y393F,> 1 µM
same,IC50,[2],0.5 to 1 µM
